In patent publication US20110312984A1, “STAT3 INHIBITORS” (priority 2008, published 2011):
“Also recorded” adds a separate entry of the source. Where two headings read alike, the source gives them in different places.

How the values were obtained:
GFP-Stat3α = biological target: T1, GFP-Stat3α (Homo sapiens, UniProt P40763); test: High-throughput fluorescence microscopy (HTFM), cytoplasm-to-nucleus translocation inhibition in MEF/GFP-Stat3α cells; format: cell-based, murine
T1 construct: expressed in transfected cells; host or cells: murine embryonic fibroblasts (MEF) deficient in endogenous Stat3
T1 sequence (P40763 whole entry): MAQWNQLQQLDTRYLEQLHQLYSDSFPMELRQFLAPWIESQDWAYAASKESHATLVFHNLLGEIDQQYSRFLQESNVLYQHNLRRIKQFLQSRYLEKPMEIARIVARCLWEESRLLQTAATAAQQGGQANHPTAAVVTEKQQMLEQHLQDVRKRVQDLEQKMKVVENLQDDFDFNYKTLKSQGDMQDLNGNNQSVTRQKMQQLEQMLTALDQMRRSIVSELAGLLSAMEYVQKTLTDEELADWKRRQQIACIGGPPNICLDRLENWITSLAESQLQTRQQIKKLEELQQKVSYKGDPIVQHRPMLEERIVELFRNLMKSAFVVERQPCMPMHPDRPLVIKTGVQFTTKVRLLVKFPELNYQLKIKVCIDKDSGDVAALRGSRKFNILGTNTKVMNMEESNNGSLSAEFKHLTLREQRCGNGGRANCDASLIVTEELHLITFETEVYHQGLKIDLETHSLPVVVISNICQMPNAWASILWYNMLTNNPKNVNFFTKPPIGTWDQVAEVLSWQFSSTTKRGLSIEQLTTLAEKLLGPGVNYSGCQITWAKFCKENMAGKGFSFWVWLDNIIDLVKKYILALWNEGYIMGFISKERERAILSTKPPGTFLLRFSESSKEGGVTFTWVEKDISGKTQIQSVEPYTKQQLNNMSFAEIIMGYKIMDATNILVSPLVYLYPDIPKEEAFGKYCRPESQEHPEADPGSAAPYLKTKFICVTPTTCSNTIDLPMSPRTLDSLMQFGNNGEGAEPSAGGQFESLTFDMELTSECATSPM
Method: Confocal and highthroughput fluorescence microscopy (HTFM) of MEF/GFP-Stat3α cells were performed as described (Huang et al., 2007). […] For HTFM, cells were seeded into 96-well CC3 plates at a density of 5,000 cells/well using an automated plating system. Cells were cultured under standard conditions until 85-90% confluent. Cells were pretreated with compound for 1 hour at 37° C. then stimulated with IL-6 (200 ng/ml) and IL-6sR (250 ng/ml) for 30 minutes. Cells fixed with 4% formaldehyde in PEM Buffer (80 mM Potassium PIPES, pH 6.8, 5 mM EGTA pH 7.0, 2 mM MgCl2) for 30 minutes at 4° C., quenched in 1 mg/ml of NaBH4 (Sigma) in PEM buffer and counterstained for 1 min in 4,6-diamidino-2-phenylindole (DAPI; Sigma; 1 mg/ml) in PEM buffer. […] Plates were analyzed by automated HTFM using the Cell Lab IC Image Cytometer (IC100) platform and CytoshopVersion 2.1 analysis software (Beckman Coulter). Nuclear translocation is quantified by using the fraction localized in the nucleus (FLIN) measurement (Sharp et al., 2006).
High throughput fluorescence microscopy (HTFM), cytoplasm-to-nucleus translocation inhibition assays. […] Briefly, cells are seeded into 96-well CC3 plates at a density of 5,000 cells/well and cultured under standard conditions until 85-90% confluent. Cells are pre-treated with compound for 1 hour at 37° C. then stimulated with IL-6 (100 ng/ml) and IL-6sR (150 ng/ml) for 30 minutes. Cells are fixed with 4% formaldehyde in PEM Buffer (80 mM Potassium PIPES, pH 6.8, 5 mM EGTA pH 7.0, 2 mM MgCl2) for 30 minutes at 4° C., quenched in 1 mg/ml of NaBH4 (Sigma) in PEM buffer and counterstained for 1 min in 4,6-diamidino-2-phenylindole (DAPI; Sigma; 1 mg/ml) in PEM buffer. Plates are analyzed by automated HTFM using the Cell Lab IC Image Cytometer (IC100) platform and CytoshopVersion 2.1 analysis software (Beckman Coulter).
Nuclear translocation is quantified by using the fraction localized in the nucleus (FLIN) measurement. […] The best-fitting curve and IC50 value are determined using 4-Parameter LogisticModel/Dose Response/XLfit 4.2, IDBS software.

Stat3 = biological target: T2, Stat3 (Homo sapiens, UniProt P40763); test: Immunoblot assay: IL-6-mediated phosphorylation of Stat3 in HepG2 cells; format: cell-based
T2 construct: endogenous in cells; host or cells: HepG2
T2 sequence (P40763 2-770 limits assumed): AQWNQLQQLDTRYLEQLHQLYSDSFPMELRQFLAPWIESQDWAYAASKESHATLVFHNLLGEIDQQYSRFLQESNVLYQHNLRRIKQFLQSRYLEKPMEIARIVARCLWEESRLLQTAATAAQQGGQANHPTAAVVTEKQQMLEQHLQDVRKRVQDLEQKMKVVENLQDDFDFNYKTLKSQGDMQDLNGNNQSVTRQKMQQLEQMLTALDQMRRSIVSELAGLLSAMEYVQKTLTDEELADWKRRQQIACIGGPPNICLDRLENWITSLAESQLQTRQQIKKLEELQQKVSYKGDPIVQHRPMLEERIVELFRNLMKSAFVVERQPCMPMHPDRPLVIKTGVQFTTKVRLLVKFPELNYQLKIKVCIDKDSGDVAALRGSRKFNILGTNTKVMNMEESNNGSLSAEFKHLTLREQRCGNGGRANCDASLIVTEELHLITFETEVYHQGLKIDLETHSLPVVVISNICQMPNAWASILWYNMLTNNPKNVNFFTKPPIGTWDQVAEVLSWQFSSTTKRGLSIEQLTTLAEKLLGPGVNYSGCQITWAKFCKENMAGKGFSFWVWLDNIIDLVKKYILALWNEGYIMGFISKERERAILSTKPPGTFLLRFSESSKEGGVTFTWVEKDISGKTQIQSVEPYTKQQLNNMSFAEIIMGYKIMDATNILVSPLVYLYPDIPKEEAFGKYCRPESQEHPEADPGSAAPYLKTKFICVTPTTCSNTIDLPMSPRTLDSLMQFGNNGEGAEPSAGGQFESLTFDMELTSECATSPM
Method: Immunoblot assay. The human hepatocellular carcinoma cell line (HepG2) was grown in 6-well plates under standard conditions. […] Prestained molecular weight markers (Biorad, Hercules, Calif.) were included in each gel. […] Membranes were stripped between antibody probing using Restore™ Western Blot Stripping Buffer (Thermo Fisher Scientific Inc., Waltham, Mass.) per the manufacturer's instructions. Horseradish peroxidase-conjugated goat-anti-mouse IgG was used as the secondary antibody (Invitrogen Carlsbad, Calif.) and the membranes were developed with enhanced chemiluminescence (ECL) detection system (Amersham Life Sciences Inc.; Arlington Heights, Ill.).
Ligand-mediated pStat3 and pStat1 inhibition assays. […] Membranes are probed serially with antibody against Stat1 pY701 or Stat3 pY705 followed by antibody against Stat 1 or Stat3 (Transduction labs, Lexington, Ky.) then antibody against β-actin (Abcam, Cambridge, Mass.). Membranes are stripped between antibody probings using Restore™ Western Blot Stripping Buffer (Thermo Fisher Scientific Inc., Waltham, Mass.) per the manufacturer's instructions. Horseradish peroxidase-conjugated goat-anti-mouse IgG is used as the secondary antibody (Invitrogen Carlsbad, Calif.) and the membranes are developed with enhanced chemiluminescence (ECL) detection system (Amersham Life Sciences Inc.; Arlington Heights, Ill.). Band intensities are quantified by densitometry. The value of each pStat3 band is divided by its corresponding total Stat3 band intensity; the results are normalized to the DMSO-treated control value. This value was plotted as a function of the log compound concentration. The best-fitting curve is determined using 4-Parameter Logistic Model/Dose Response/XLfit 4.2, IDBS software and was used to calculate the IC50 value.

Stat1 = biological target: T3, Stat1 (Homo sapiens, UniProt P42224); test: Immunoblot assay: IFN-γ-mediated phosphorylation of Stat1 in HepG2 cells; format: cell-based; conditions: 300 μM, 1 hour at 37° C. before IFN-γ stimulation
T3 construct: endogenous in cells; host or cells: HepG2
T3 sequence (P42224 1-750): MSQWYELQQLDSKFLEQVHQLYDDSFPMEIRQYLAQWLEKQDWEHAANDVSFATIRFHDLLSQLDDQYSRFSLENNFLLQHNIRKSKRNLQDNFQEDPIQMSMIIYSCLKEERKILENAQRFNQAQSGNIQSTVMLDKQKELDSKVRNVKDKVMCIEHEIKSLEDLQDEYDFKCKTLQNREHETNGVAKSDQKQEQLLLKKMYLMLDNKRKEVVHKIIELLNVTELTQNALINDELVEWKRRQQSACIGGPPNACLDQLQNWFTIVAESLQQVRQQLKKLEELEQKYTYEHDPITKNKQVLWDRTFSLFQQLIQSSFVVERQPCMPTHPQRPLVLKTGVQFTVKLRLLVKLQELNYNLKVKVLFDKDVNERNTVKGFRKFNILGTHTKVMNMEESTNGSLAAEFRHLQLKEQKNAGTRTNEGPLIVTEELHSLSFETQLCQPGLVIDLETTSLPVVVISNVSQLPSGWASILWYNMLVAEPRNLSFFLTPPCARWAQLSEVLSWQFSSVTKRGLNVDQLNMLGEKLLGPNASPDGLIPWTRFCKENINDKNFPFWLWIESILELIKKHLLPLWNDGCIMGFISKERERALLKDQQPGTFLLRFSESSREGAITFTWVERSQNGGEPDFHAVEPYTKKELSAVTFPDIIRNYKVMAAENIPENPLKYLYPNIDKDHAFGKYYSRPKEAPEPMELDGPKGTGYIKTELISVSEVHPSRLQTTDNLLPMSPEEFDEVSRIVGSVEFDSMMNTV
Method: Immunoblot assay. The human hepatocellular carcinoma cell line (HepG2) was grown in 6-well plates under standard conditions. Cells were pretreated with compounds (0, 1, 3, 10, 30, 100 and 300 uM) for 1 hour then stimulated under optimal conditions with either interferon gamma (IFN-γ; 30 ng/ml for 30 min) to activate Stat1 or interleukin-6 (IL-6; 30 ng/ml for 30 min) to activate Stat3 (30-31). Cultures were then harvested and proteins extracted using high-salt buffer, as described (Shao et al., 2006). Briefly, extracts were mixed with 2× sodium dodecyl sulfate (SDS) sample buffer (125 mmol/L Tris-HCL pH 6.8; 4% SDS; 20% glycerol; 10% 2-mercaptoethanol) at a 1:1 ratio and heated for 5 minutes at 100° C. Proteins (20 μg) were separated by 7.5% SDS-PAGE and transferred to polyvinylidene fluoride (PVDF) membrane (Millipore, Waltham, Mass.) and immunoblotted. Prestained molecular weight markers (Biorad, Hercules, Calif.) were included in each gel. Membranes were probed serially with antibody against Stat1 pY^701 or Stat3 pY^705 followed by antibody against Stat1 or Stat3 (Transduction labs, Lexington, Ky.) then antibody against β-actin (Abcam, Cambridge, Mass.). Membranes were stripped between antibody probing using Restore™ Western Blot Stripping Buffer (Thermo Fisher Scientific Inc., Waltham, Mass.) per the manufacturer's instructions. Horseradish peroxidase-conjugated goat-anti-mouse IgG was used as the secondary antibody (Invitrogen Carlsbad, Calif.) and the membranes were developed with enhanced chemiluminescence (ECL) detection system (Amersham Life Sciences Inc.; Arlington Heights, Ill.).
EXP IIC. Ligand-mediated pStat3 and pStat1 inhibition assays. […] Briefly, human hepatocellular carcinoma cells (HepG2) are grown in 6-well plates and pretreated with compounds (0, 0.1, 0.3, 1, 3, 10, 30, 100 μM) for 1 hour then stimulated under optimal conditions with either interleukin-6 (IL-6; 30 ng/ml for 30 min) to activate Stat3 or interferon gamma (IFN-γ; 30 ng/ml for 30 min) to activate Stat1. Cells are harvested and proteins extracted using high-salt buffer, mixed with 2× sodium dodecyl sulfate (SDS) sample buffer (125 mmol/L Tris-HCL pH 6.8; 4% SDS; 20% glycerol; 10% 2-mercaptoethanol) at a 1:1 ratio then heated for 5 minutes at 100° C. Proteins (20 μg) are separated by 7.5% SDS-PAGE and transferred to polyvinylidene fluoride (PVDF) membrane (Millipore, Waltham, Mass.) and immunoblotted. Membranes are probed serially with antibody against Stat1 pY701 or Stat3 pY705 followed by antibody against Stat 1 or Stat3 (Transduction labs, Lexington, Ky.) then antibody against β-actin (Abcam, Cambridge, Mass.). Membranes are stripped between antibody probings using Restore™ Western Blot Stripping Buffer (Thermo Fisher Scientific Inc., Waltham, Mass.) per the manufacturer's instructions. Horseradish peroxidase-conjugated goat-anti-mouse IgG is used as the secondary antibody (Invitrogen Carlsbad, Calif.) and the membranes are developed with enhanced chemiluminescence (ECL) detection system (Amersham Life Sciences Inc.; Arlington Heights, Ill.). Band intensities are quantified by densitometry. The value of each pStat3 band is divided by its corresponding total Stat3 band intensity; the results are normalized to the DMSO-treated control value. This value was plotted as a function of the log compound concentration. The best-fitting curve is determined using 4-Parameter Logistic Model/Dose Response/XLfit 4.2, IDBS software and was used to calculate the IC50 value.

[1] = system: breast cancer cells with constitutively activated Stat3; conditions: cited from earlier work
Stat3:hSIE complexes = biological target: T4, Stat3:hSIE complexes (Homo sapiens, UniProt P40763); test: Electrophoretic mobility shift assay (EMSA) with hSIE probe, extracts of IL-6-stimulated HepG2 cells; format: biochemical; conditions: 300 μM, 60 minutes at 37° C.
T4 construct: endogenous in cells; host or cells: HepG2
T4 sequence (P40763 2-770 limits assumed, one chain of several): as the sequence (P40763 2-770 limits assumed) above
Method: Electrophoretic Mobility Shift Assay (EMSA): EMSA was performed using the hSIE radiolabeled duplex oligonucleotide as a probe as described (Tweardy et al., 1995). Briefly, high salt extracts were prepared from HepG2 cells incubated without or with IL-6 (30 ng/ml) for 30 minutes. Protein concentration was determined by Bradford Assay and 20 ug of extract was incubated with compound (300 uM) for 60 minutes at 37° C. […] Gels were dried and autoradiographed.

human leukemic cell line = test: Leukemic cell line (AML) apoptosis assay; format: cell-based
MDA-MB-231 = conditions: 5 mg/kg every 2-3 days; cited from earlier work
[2] = MEF/GFP-Stat3α, IL-6 200 ng/ml and IL-6sR 250 ng/ml 30 min, read-out: HTM IC50 (ligand-mediated nuclear translocation of GFP-Stat3α)
[3] = HepG2, compound 1 hour, IL-6 30 ng/ml 30 min, read-out: pStat3 IC50 (IL-6-mediated phosphorylation of Stat3)

Which IC50 (GFP-Stat3α; [2]) does the source give for `CCOc1cc(C=C2C(=O)c3ccccc3C2=O)cc(Cl)c1OCc1cccc(C(=O)O)c1` [Cpd3-2, 3-({2-chloro-4-[(1,3-dioxo-1,3-dihydro-2H-inden-2-ylidene)methyl]-6-ethoxyphenoxy}methyl)benzoic acid] here?
The IC50 was 150 µM.

What about the IC50 (Stat3; [3]) of the same compound?
Its IC50 is 144 µM.

And the Stat1 phosphorylation blocked (Stat1)?
The Stat1 phosphorylation blocked was “did not”.

For `CCN1C(=O)C(=Cc2ccc(-c3ccc(C(=O)O)cc3)o2)SC1=S` [Cpd30, 4-{5-[(3-ethyl-4-oxo-2-thioxo-1,3-thiazolidin-5-ylidene)methyl]-2-furyl}benzoic acid], which Stat1 phosphorylation blocked (Stat1) is on record?
The Stat1 phosphorylation blocked was “did not”.

Which “active concentration range (binding, phosphorylation, translocation, DNA binding, apoptosis)” value [1] does the source give for `O=[N+]([O-])c1ccc2c(c1)S(=O)(=O)C=C2` [Stattic] here?
Its value is 5 to 20 µM.

What does the source list for `O=C(O)c1ccc(C=CC(=O)c2ccc3c(c2)OCCO3)cc1` [Cpd3, 4-[3-(2,3-dihydro-1,4-benzodioxin-6-yl)-3-oxo-1-propen-1-yl]benzoic acid]?
IC50 (GFP-Stat3α; [2]): 131 µM; IC50 (Stat3; [3]): 91 µM; amount of hSIE shifted (Stat3:hSIE band intensity) (Stat3:hSIE complexes): reduced the amount of hSIE shifted by half or greater; Stat1 phosphorylation blocked (Stat1): did not

With `COC(=O)Cc1c(C)c2ccc(OCc3ccc(C(=O)OC)cc3)c(C)c2oc1=O` [Cpd3-7, methyl 4-({[3-(2-methyoxy-2-oxoethyl)-4,8-dimethyl-2-oxo-2H-chromen-7-yl]oxy}methyl)benzoate] as the compound, how does the Stat1 phosphorylation blocked (Stat1) read?
The Stat1 phosphorylation blocked was “did not”.

For `COc1ccc(S(=O)(=O)Nc2cc(-c3c(O)ccc4ccccc34)c(O)c3ccccc23)cc1` [Cpd188-9], which “leukemic cell line apoptosis activity compared with parent Cpd188” value (human leukemic cell line) is on record?
The value was “one log better; also recorded: a log greater activity”.

For `Cc1ccc(S(=O)(=O)OCC(=O)Nc2ccc(C(=O)O)c(O)c2)cc1` [S3I-201], which “growth of nude mice xenografts” value (MDA-MB-231) is on record?
Its value is “inhibited growth”.

For `CCN1C(=O)C(=Cc2ccc(-c3cc(C(=O)O)ccc3Cl)o2)C(=O)N(CC)C1=S` [Cpd30-12, 4-chloro-3-{5-[(1,3-diethyl-4,6-dioxo-2-thioxotetrahydro-5(2H)-pyrimidinylidene)methyl]-2-furyl}benzoic acid], which IC50 (GFP-Stat3α) is on record?
Its IC50 is over 300 µM.

And the IC50 (Stat3)?
Its IC50 is 60 µM.

And the Stat1 phosphorylation blocked (Stat1)?
The Stat1 phosphorylation blocked was “blocked”.
